# In ChEMBL document CHEMBL1671854, “ramR mutations involved in efflux-mediated multidrug resistance in Salmonella enterica serovar Typhimurium” (2008):
# How the values were obtained:
# Assay type in all cases: functional, Salmonella enterica subsp. enterica serovar Typhimurium
# Salmonella typhimurium [1] = test: Antimicrobial activity against multidrug-resistant Salmonella enterica serovar Typhimurium 902SA92 harboring GyrA S83A and D87N, GyrB S464F and ParC S80I mutant genes by agar doubling dilution method
# Salmonella typhimurium [2] = test: Antimicrobial activity against multidrug-resistant Salmonella enterica serovar Typhimurium 902SA92 harboring plasmid encoded RamR gene, GyrA S83A and D87N, GyrB S464F and ParC S80I mutant genes by agar doubling dilution method
# Salmonella typhimurium [3] = test: Antimicrobial activity against ramA::kan-deficient Salmonella enterica serovar Typhimurium 902SA92 harboring GyrA S83A and D87N, GyrB S464F and ParC S80I mutant genes by agar doubling dilution method
# Salmonella typhimurium [4] = test: Antimicrobial activity against multidrug-resistant Salmonella enterica serovar Typhimurium 102SA00 harboring GyrA S83A and D87N, GyrB S464F and ParC S80I mutant genes by agar doubling dilution method
# Salmonella typhimurium [5] = test: Antimicrobial activity against multidrug-resistant Salmonella enterica serovar Typhimurium 102SA00 harboring plasmid encoded RamR gene, GyrA S83A and D87N, GyrB S464F and ParC S80I mutant genes by agar doubling dilution method
# Salmonella typhimurium [6] = test: Antimicrobial activity against ramA::kan-deficient Salmonella enterica serovar Typhimurium 102SA00 harboring GyrA S83A and D87N, GyrB S464F and ParC S80I mutant genes by agar doubling dilution method
# Salmonella typhimurium [7] = test: Antimicrobial activity against multidrug-resistant Salmonella enterica serovar Typhimurium BN10055 harboring GyrA S83Y mutant gene by agar doubling dilution method
# Salmonella typhimurium [8] = test: Antimicrobial activity against multidrug-resistant Salmonella enterica serovar Typhimurium BN10055 harboring plasmid encoded RamR gene, GyrA S83Y mutant gene by agar doubling dilution method
# Salmonella typhimurium [9] = test: Antimicrobial activity against ramA::kan-deficient Salmonella enterica serovar Typhimurium BN10055 harboring GyrA S83Y mutant gene by agar doubling dilution method
# Salmonella typhimurium [10] = test: Antimicrobial activity against multidrug-resistant Salmonella enterica serovar Typhimurium 543SA98 harboring GyrA […] mutant gene by agar doubling dilution method
# Salmonella typhimurium [11] = test: Antimicrobial activity against multidrug-resistant Salmonella enterica serovar Typhimurium 543SA98 harboring plasmid encoded RamR gene, GyrA S83Y mutant gene by agar doubling dilution method
# Salmonella typhimurium [12] = test: Antimicrobial activity against ramA::kan-deficient Salmonella enterica serovar Typhimurium 543SA98 harboring GyrA S83Y mutant gene by agar doubling dilution method
# Salmonella typhimurium [13] = test: Antimicrobial activity against multidrug-resistant Salmonella enterica serovar Typhimurium BN9945 by agar doubling dilution method
# Salmonella typhimurium [14] = test: Antimicrobial activity against multidrug-resistant Salmonella enterica serovar Typhimurium BN9945 harboring plasmid encoded RamR gene by agar doubling dilution method
# Salmonella typhimurium [15] = test: Antimicrobial activity against ramA::kan-deficient Salmonella enterica serovar Typhimurium BN9945 by agar doubling dilution method
# Salmonella typhimurium [16] = test: Antimicrobial activity against multidrug-resistant Salmonella enterica serovar Typhimurium BN9181 by agar doubling dilution method
# Salmonella typhimurium [17] = test: Antimicrobial activity against multidrug-resistant Salmonella enterica serovar Typhimurium BN9181 harboring plasmid encoded RamR gene by agar doubling dilution method
# Salmonella typhimurium [18] = test: Antimicrobial activity against ramA::kan-deficient Salmonella enterica serovar Typhimurium BN9181 by agar doubling dilution method
# Salmonella typhimurium [19] = test: Antimicrobial activity against Salmonella enterica serovar Typhimurium S/921495 by agar doubling dilution method
# Salmonella typhimurium [20] = test: Antimicrobial activity against marR::kan-deficient Salmonella enterica serovar Typhimurium S/921495 by agar doubling dilution method
# Salmonella typhimurium [21] = test: Antimicrobial activity against marR-deficient Salmonella enterica serovar Typhimurium S/921495 by agar doubling dilution method
# Salmonella typhimurium [22] = test: Antimicrobial activity against marA::kan-deficient Salmonella enterica serovar Typhimurium S/921495 by agar doubling dilution method
# Salmonella typhimurium [23] = test: Antimicrobial activity against soxR::kan-deficient Salmonella enterica serovar Typhimurium S/921495 by agar doubling dilution method
# Salmonella typhimurium [24] = test: Antimicrobial activity against soxS::kan-deficient Salmonella enterica serovar Typhimurium S/921495 by agar doubling dilution method
# Salmonella typhimurium [25] = test: Antimicrobial activity against Salmonella enterica serovar Typhimurium S/921495 harboring plasmid encoded RamR gene by agar doubling dilution method
# Salmonella typhimurium [26] = test: Antimicrobial activity against ramR-deficient Salmonella enterica serovar Typhimurium S/921495 harboring plasmid encoded RamR gene by agar doubling dilution method
# Salmonella typhimurium [27] = test: Antimicrobial activity against ramA::kan-deficient Salmonella enterica serovar Typhimurium S/921495 by agar doubling dilution method
# Salmonella typhimurium [28] = test: Antimicrobial activity against Salmonella enterica serovar Typhimurium BN18 by agar doubling dilution method
# Salmonella typhimurium [29] = test: Antimicrobial activity against Salmonella enterica serovar Typhimurium BN18 harboring plasmid encoded RamR gene by agar doubling dilution method
# Salmonella typhimurium [30] = test: Antimicrobial activity against ramA::kan-deficient Salmonella enterica serovar Typhimurium BN18 by agar doubling dilution method
# Salmonella typhimurium [31] = test: Antimicrobial activity against Salmonella enterica serovar Typhimurium BN18/21 by agar doubling dilution method
# Salmonella typhimurium [32] = test: Antimicrobial activity against Salmonella enterica serovar Typhimurium BN18/21 harboring plasmid encoded RamR gene by agar doubling dilution method
# Salmonella typhimurium [33] = test: Antimicrobial activity against ramA::kan-deficient Salmonella enterica serovar Typhimurium BN18/21 by agar doubling dilution method
# Salmonella typhimurium [34] = test: Antimicrobial activity against Salmonella enterica serovar Typhimurium BN18/41 harboring GyrA G81C,acrR mutant genes by agar doubling dilution method
# Salmonella typhimurium [35] = test: Antimicrobial activity against Salmonella enterica serovar Typhimurium BN18/41 harboring plasmid encoded RamR gene, GyrA G81C,acrR mutant genes by agar doubling dilution method
# Salmonella typhimurium [36] = test: Antimicrobial activity against ramA::kan-deficient Salmonella enterica serovar Typhimurium BN18/41 harboring plasmid encoded RamR gene, GyrA G81C,acrR mutant genes by agar doubling dilution method
# Salmonella typhimurium [37] = test: Antimicrobial activity against Salmonella enterica serovar Typhimurium BN18/71 harboring GyrA G81C, acrR mutant genes by agar doubling dilution method
# Salmonella typhimurium [38] = test: Antimicrobial activity against Salmonella enterica serovar Typhimurium BN18/71 harboring plasmid encoded RamR gene, GyrA G81C,acrR mutant genes by agar doubling dilution method
# Salmonella typhimurium [39] = test: Antimicrobial activity against ramA::kan-deficient Salmonella enterica serovar Typhimurium BN18/71 harboring plasmid encoded RamR gene, GyrA G81C,acrR mutant genes by agar doubling dilution method
# Salmonella typhimurium [40] = test: Antimicrobial activity against ramR::kan-deficient Salmonella enterica serovar Typhimurium S/921495 by agar doubling dilution method
# Salmonella typhimurium [41] = test: Antimicrobial activity against ramR-deficient Salmonella enterica serovar Typhimurium S/921495 by agar doubling dilution method
compound,measurement,setting,value
O=C(N[C@H](CO)[C@H](O)c1ccc([N+](=O)[O-])cc1)C(Cl)Cl [CHLORAMPHENICOL],MIC,Salmonella typhimurium [1],1020 µg/mL
same,MIC,Salmonella typhimurium [2],256 µg/mL
same,MIC,Salmonella typhimurium [3],256 µg/mL
same,MIC,Salmonella typhimurium [4],512 µg/mL
same,MIC,Salmonella typhimurium [5],256 µg/mL
same,MIC,Salmonella typhimurium [6],256 µg/mL
same,MIC,Salmonella typhimurium [7],1020 µg/mL
same,MIC,Salmonella typhimurium [8],1020 µg/mL
same,MIC,Salmonella typhimurium [9],128 µg/mL
same,MIC,Salmonella typhimurium [10],512 µg/mL
same,MIC,Salmonella typhimurium [11],128 µg/mL
same,MIC,Salmonella typhimurium [12],128 µg/mL
same,MIC,Salmonella typhimurium [13],512 µg/mL
same,MIC,Salmonella typhimurium [14],128 µg/mL
same,MIC,Salmonella typhimurium [15],128 µg/mL
same,MIC,Salmonella typhimurium [16],128 µg/mL
same,MIC,Salmonella typhimurium [17],128 µg/mL
same,MIC,Salmonella typhimurium [18],128 µg/mL
same,MIC,Salmonella typhimurium [19],4 µg/mL
same,MIC,Salmonella typhimurium [20],4 µg/mL
same,MIC,Salmonella typhimurium [21],4 µg/mL
same,MIC,Salmonella typhimurium [22],4 µg/mL
same,MIC,Salmonella typhimurium [23],4 µg/mL
same,MIC,Salmonella typhimurium [24],4 µg/mL
same,MIC,Salmonella typhimurium [25],4 µg/mL
same,MIC,Salmonella typhimurium [26],4 µg/mL
same,MIC,Salmonella typhimurium [27],4 µg/mL
same,MIC,Salmonella typhimurium [28],4 µg/mL
same,MIC,Salmonella typhimurium [29],4 µg/mL
same,MIC,Salmonella typhimurium [30],4 µg/mL
same,MIC,Salmonella typhimurium [31],16 µg/mL
same,MIC,Salmonella typhimurium [32],4 µg/mL
same,MIC,Salmonella typhimurium [33],4 µg/mL
same,MIC,Salmonella typhimurium [34],32 µg/mL
same,MIC,Salmonella typhimurium [35],16 µg/mL
same,MIC,Salmonella typhimurium [36],16 µg/mL
same,MIC,Salmonella typhimurium [37],64 µg/mL
same,MIC,Salmonella typhimurium [38],16 µg/mL
same,MIC,Salmonella typhimurium [39],16 µg/mL
same,MIC,Salmonella typhimurium [40],16 µg/mL
same,MIC,Salmonella typhimurium [41],16 µg/mL
O=C(O)c1cn(C2CC2)c2cc(N3CCNCC3)c(F)cc2c1=O [CIPROFLOXACIN],MIC,Salmonella typhimurium [1],32 µg/mL
same,MIC,Salmonella typhimurium [2],8 µg/mL
same,MIC,Salmonella typhimurium [3],8 µg/mL
same,MIC,Salmonella typhimurium [4],32 µg/mL
same,MIC,Salmonella typhimurium [5],8 µg/mL
same,MIC,Salmonella typhimurium [6],8 µg/mL
same,MIC,Salmonella typhimurium [7],1 µg/mL
same,MIC,Salmonella typhimurium [8],1 µg/mL
same,MIC,Salmonella typhimurium [9],0.25 µg/mL
same,MIC,Salmonella typhimurium [10],0.5 µg/mL
same,MIC,Salmonella typhimurium [11],0.125 µg/mL
same,MIC,Salmonella typhimurium [12],0.125 µg/mL
same,MIC,Salmonella typhimurium [13],0.5 µg/mL
same,MIC,Salmonella typhimurium [14],0.125 µg/mL
same,MIC,Salmonella typhimurium [15],0.125 µg/mL
same,MIC,Salmonella typhimurium [16],0.015 µg/mL
same,MIC,Salmonella typhimurium [17],0.015 µg/mL
same,MIC,Salmonella typhimurium [18],0.0075 µg/mL
same,MIC,Salmonella typhimurium [19],0.015 µg/mL
same,MIC,Salmonella typhimurium [20],0.015 µg/mL
same,MIC,Salmonella typhimurium [21],0.015 µg/mL
same,MIC,Salmonella typhimurium [22],0.015 µg/mL
same,MIC,Salmonella typhimurium [23],0.015 µg/mL
same,MIC,Salmonella typhimurium [24],0.015 µg/mL
same,MIC,Salmonella typhimurium [25],0.015 µg/mL
same,MIC,Salmonella typhimurium [26],0.015 µg/mL
same,MIC,Salmonella typhimurium [27],0.015 µg/mL
same,MIC,Salmonella typhimurium [28],0.015 µg/mL
same,MIC,Salmonella typhimurium [29],0.015 µg/mL
same,MIC,Salmonella typhimurium [30],0.015 µg/mL
same,MIC,Salmonella typhimurium [31],0.125 µg/mL
same,MIC,Salmonella typhimurium [32],0.06 µg/mL
same,MIC,Salmonella typhimurium [33],0.06 µg/mL
same,MIC,Salmonella typhimurium [34],2 µg/mL
same,MIC,Salmonella typhimurium [35],0.5 µg/mL
same,MIC,Salmonella typhimurium [36],0.5 µg/mL
same,MIC,Salmonella typhimurium [37],8 µg/mL
same,MIC,Salmonella typhimurium [38],2 µg/mL
same,MIC,Salmonella typhimurium [39],2 µg/mL
same,MIC,Salmonella typhimurium [40],0.06 µg/mL
same,MIC,Salmonella typhimurium [41],0.06 µg/mL
CS(=O)(=O)c1ccc([C@@H](O)[C@@H](CF)NC(=O)C(Cl)Cl)cc1 [FLORFENICOL],MIC,Salmonella typhimurium [1],16 µg/mL
same,MIC,Salmonella typhimurium [2],4 µg/mL
same,MIC,Salmonella typhimurium [3],4 µg/mL
same,MIC,Salmonella typhimurium [4],16 µg/mL
same,MIC,Salmonella typhimurium [5],4 µg/mL
same,MIC,Salmonella typhimurium [6],4 µg/mL
same,MIC,Salmonella typhimurium [7],128 µg/mL
same,MIC,Salmonella typhimurium [8],128 µg/mL
same,MIC,Salmonella typhimurium [9],32 µg/mL
same,MIC,Salmonella typhimurium [10],512 µg/mL
same,MIC,Salmonella typhimurium [11],128 µg/mL
same,MIC,Salmonella typhimurium [12],128 µg/mL
same,MIC,Salmonella typhimurium [13],128 µg/mL
same,MIC,Salmonella typhimurium [14],64 µg/mL
same,MIC,Salmonella typhimurium [15],64 µg/mL
same,MIC,Salmonella typhimurium [16],32 µg/mL
same,MIC,Salmonella typhimurium [17],32 µg/mL
same,MIC,Salmonella typhimurium [18],32 µg/mL
same,MIC,Salmonella typhimurium [19],4 µg/mL
same,MIC,Salmonella typhimurium [20],4 µg/mL
same,MIC,Salmonella typhimurium [21],4 µg/mL
same,MIC,Salmonella typhimurium [22],4 µg/mL
same,MIC,Salmonella typhimurium [23],4 µg/mL
same,MIC,Salmonella typhimurium [24],4 µg/mL
same,MIC,Salmonella typhimurium [25],4 µg/mL
same,MIC,Salmonella typhimurium [26],4 µg/mL
same,MIC,Salmonella typhimurium [27],4 µg/mL
same,MIC,Salmonella typhimurium [28],4 µg/mL
same,MIC,Salmonella typhimurium [29],4 µg/mL
same,MIC,Salmonella typhimurium [30],2 µg/mL
same,MIC,Salmonella typhimurium [31],16 µg/mL
same,MIC,Salmonella typhimurium [32],4 µg/mL
same,MIC,Salmonella typhimurium [33],4 µg/mL
same,MIC,Salmonella typhimurium [34],64 µg/mL
same,MIC,Salmonella typhimurium [35],8 µg/mL
same,MIC,Salmonella typhimurium [36],8 µg/mL
same,MIC,Salmonella typhimurium [37],64 µg/mL
same,MIC,Salmonella typhimurium [38],8 µg/mL
same,MIC,Salmonella typhimurium [39],8 µg/mL
same,MIC,Salmonella typhimurium [40],16 µg/mL
same,MIC,Salmonella typhimurium [41],16 µg/mL
